From ChEMBL document CHEMBL1687786, “Diversity of staphylococcal cassette chromosome mec elements in predominant methicillin-resistant Staphylococcus aureus clones in a small geographic area” (2010) come the findings set out here.

What all share (format): functional
Assay [1] deals with Staphylococcus aureus. Kind of assay: Antimicrobial activity against Staphylococcus aureus clone 3-3 harboring staphylococcal cassette chromosome mec element type U6 assessed as percent susceptible isolates by kirby-bauer method.
Assay [2] relates to Staphylococcus aureus. Kind of assay: Antimicrobial activity against Staphylococcus aureus clone 3-3 harboring staphylococcal cassette chromosome mec element type 6 assessed as percent susceptible isolates by kirby-bauer method.
For assay [3], the system named is Staphylococcus aureus. Kind of assay: Antimicrobial activity against Staphylococcus aureus clone 3-3 harboring staphylococcal cassette chromosome mec element type 4 assessed as percent susceptible isolates by kirby-bauer method.
The subject of assay [4] is Staphylococcus aureus. Kind of assay: Antimicrobial activity against Staphylococcus aureus clone 2-2 harboring staphylococcal cassette chromosome mec element type 4 assessed as percent susceptible isolates by kirby-bauer method.
Assay [5] has as its system Staphylococcus aureus. Kind of assay: Antimicrobial activity against Staphylococcus aureus clone 1-1 harboring staphylococcal cassette chromosome mec element type 5 assessed as percent susceptible isolates by kirby-bauer method.
In assay [6] the test system is Staphylococcus aureus. The assay is described as follows: Antimicrobial activity against Staphylococcus aureus clone 4-4 harboring staphylococcal cassette chromosome mec element type 1 assessed as percent susceptible isolates by kirby-bauer method.
Assay [7] deals with Staphylococcus aureus. The assay is described as follows: Antimicrobial activity against Staphylococcus aureus clone 2-2 harboring staphylococcal cassette chromosome mec element type U3 assessed as percent susceptible isolates by kirby-bauer method.
Assay [8] deals with Staphylococcus aureus. The assay is described as follows: Antimicrobial activity against Staphylococcus aureus clone 1-1 harboring staphylococcal cassette chromosome mec element type 4 assessed as percent susceptible isolates by kirby-bauer method.
Assay [9] concerns Staphylococcus aureus. Kind of assay: Antimicrobial activity against Staphylococcus aureus clone 4-4 harboring staphylococcal cassette chromosome mec element type 5 assessed as percent susceptible isolates by kirby-bauer method.
Assay [10] concerns Staphylococcus aureus. Kind of assay: Antimicrobial activity against Staphylococcus aureus clone 4-4 harboring staphylococcal cassette chromosome mec element type U3 assessed as percent susceptible isolates by kirby-bauer method.
For assay [11], the system named is Staphylococcus aureus. Kind of assay: Antimicrobial activity against Staphylococcus aureus clone 2-2 harboring staphylococcal cassette chromosome mec element type U5 assessed as percent susceptible isolates by kirby-bauer method.
For assay [12], the system named is Staphylococcus aureus. The assay is described as follows: Antimicrobial activity against Staphylococcus aureus clone 2-2 harboring staphylococcal cassette chromosome mec element type 5 assessed as percent susceptible isolates by kirby-bauer method.
In assay [13] the test system is Staphylococcus aureus. Kind of assay: Antimicrobial activity against Staphylococcus aureus clone 2-2 harboring staphylococcal cassette chromosome mec element type 6 assessed as percent susceptible isolates by kirby-bauer method.
Assay [14] has as its system Staphylococcus aureus. The assay is described as follows: Antimicrobial activity against Staphylococcus aureus clone 3-3 harboring staphylococcal cassette chromosome mec element type 2 assessed as percent susceptible isolates by kirby-bauer method.
Assay [15] deals with Staphylococcus aureus. Kind of assay: Antimicrobial activity against Staphylococcus aureus clone 4-4 harboring staphylococcal cassette chromosome mec element type 4 assessed as percent susceptible isolates by kirby-bauer method.
The subject of assay [16] is Staphylococcus aureus. The assay is described as follows: Antimicrobial activity against Staphylococcus aureus clone 3-3 harboring staphylococcal cassette chromosome mec element type 1 assessed as percent susceptible isolates by kirby-bauer method.
Assay [17] deals with Staphylococcus aureus. The assay is described as follows: Antimicrobial activity against Staphylococcus aureus clone 4-4 harboring staphylococcal cassette chromosome mec element type 2 assessed as percent susceptible isolates by kirby-bauer method.
The test system of assay [18] is Staphylococcus aureus. Kind of assay: Antimicrobial activity against Staphylococcus aureus clone 3-3 harboring staphylococcal cassette chromosome mec element type U1 assessed as percent susceptible isolates by kirby-bauer method.
The subject of assay [19] is Staphylococcus aureus. Kind of assay: Antimicrobial activity against Staphylococcus aureus clone 1-1 harboring staphylococcal cassette chromosome mec element type U assessed as percent susceptible isolates by kirby-bauer method.
The subject of assay [20] is Staphylococcus aureus. The assay is described as follows: Antimicrobial activity against Staphylococcus aureus clone 2-2 harboring staphylococcal cassette chromosome mec element type 1 assessed as percent susceptible isolates by kirby-bauer method.
Assay [21] relates to Staphylococcus aureus. The assay is described as follows: Antimicrobial activity against Staphylococcus aureus clone 2-2 harboring staphylococcal cassette chromosome mec element type 2 assessed as percent susceptible isolates by kirby-bauer method.
Assay [22] concerns Staphylococcus aureus. The assay is described as follows: Antimicrobial activity against Staphylococcus aureus clone 3-3 harboring staphylococcal cassette chromosome mec element type U8 assessed as percent susceptible isolates by kirby-bauer method.

`CO/N=C(\C(=O)N[C@@H]1C(=O)N2C(C(=O)O)=C(CSc3nc(=O)c(O)nn3C)CS[C@H]12)c1csc(N)n1` [CEFTRIAXONE]: the Activity in assay [1], in [2], in assay [3], in [4], in [5] and in assay [6] was 0% each time. Also, the Activity in assay [7] is recorded as 0%; in assay [8] it was 2%; in assay [9] it was 0%; in assay [10], 0%; in [11], 0%; in assay [12], 11%. The Activity in assay [13], in assay [14], in assay [15], in assay [16], in [17] and in assay [18] was 0% each time. Also, the Activity in [19] was determined as 0%; in assay [20], 11%; in assay [21], 0%.
Take `CCC[C@@H]1C[C@@H](C(=O)N[C@@H]([C@H]2O[C@H](SC)[C@H](O)[C@@H](O)[C@H]2O)[C@H](C)Cl)N(C)C1` [CLINDAMYCIN]: the Activity in assay [1] came out at 50%; in assay [2] it was 100%; in assay [22] it was 95%; in assay [3], 79%; in assay [4], 56%; in assay [5], 100%. In addition, the Activity in assay [6] amounted to 1%; in [7], 100%; in assay [8], 98%; in [9], 100%; in assay [10], 100%; in assay [11], 100%. In addition, the Activity was 89% in assay [12]; 100% in assay [13]; 0% in assay [16]; 0% in [17]; 100% in assay [18]; 100% in assay [19]. In addition, the Activity is reported as 89% in assay [20] and 38% in [21].
As to `CC[C@H]1OC(=O)[C@H](C)[C@@H](O[C@H]2C[C@@](C)(OC)[C@@H](O)[C@H](C)O2)[C@H](C)[C@@H](O[C@@H]2O[C@H](C)C[C@H](N(C)C)[C@H]2O)[C@](C)(O)C[C@@H](C)C(=O)[C@H](C)[C@@H](O)[C@]1(C)O` [ERYTHROMYCIN], the Activity in assay [1] turned out to be 50%; in assay [2], 100%; in assay [22], 98%; in assay [4], 39%; in [5] it was 100%; in assay [6], 1%. For the same compound, the Activity in [7] was 100%; in assay [8] it was 98%; in [9], 100%; in assay [10] it was 0%; in assay [11] it was 0%; in assay [12] it was 89%. The Activity in assay [16] was found to be 0%; in assay [17] it was 0%; in [18] it was 100%; in assay [19], 100%; in assay [20], 67%; in [21], 1%.
With `CC(=O)O[C@H]1C[C@@]2(C)[C@@H](C[C@@H](O)[C@H]3[C@@]4(C)CC[C@@H](O)[C@@H](C)[C@@H]4CC[C@@]32C)/C1=C(\CCC=C(C)C)C(=O)O` [FUSIDIC ACID], the Activity in assay [1] is 50%; in [2], 0%; in assay [22], 100%; in assay [3] it was 96%; in [4], 100%; in [5], 100%. Besides, the Activity amounted to 99% in [6]; 100% in assay [7]; 83% in [8]; 50% in [9]; 100% in assay [10]; 100% in assay [11]. Further, the Activity in assay [12] came to 100%; in assay [13], 100%; in assay [15], 100%; in [16], 0%; in assay [17] it was 100%; in [19], 0%. Also, the Activity in [20] is given as 0%; in assay [21], 98%.
As to `CO[C@H]1/C=C/O[C@@]2(C)Oc3c(C)c(O)c4c(O)c(c(/C=N/N5CCN(C)CC5)c(O)c4c3C2=O)NC(=O)/C(C)=C\C=C\[C@H](C)[C@H](O)[C@@H](C)[C@@H](O)[C@@H](C)[C@H](OC(C)=O)[C@@H]1C` [RIFAMPIN], the Activity was 100% in assay [1]; 100% in [2]; 100% in [22]; 100% in [3]; 94% in assay [4]; 100% in [5]. For the same compound, the Activity amounted to 96% in assay [6]; 100% in assay [7]; 100% in assay [8]; 100% in [9]; 100% in assay [10]; 100% in assay [11]. Moreover, the Activity in assay [12], in assay [13], in assay [14], in assay [15], in assay [16] and in assay [17] was 100% in each case. For the same compound, the Activity in assay [18], in assay [19], in assay [20] and in [21] was 100% each time.
Consider GENTAMICIN, for which the Activity in assay [1] was found to be 100%; in [2] it was 100%; in assay [22], 100%; in assay [3] it was 100%; in assay [4], 94%; in assay [5] it was 100%. Moreover, the Activity in assay [6] was 95%; in assay [7] it was 100%; in assay [8], 98%; in assay [9] it was 100%; in [10], 100%; in assay [11], 100%. The Activity in assay [12] is 0%; in assay [13] it was 100%; in [14] it was 100%; in assay [15] it was 100%; in assay [16], 97%; in assay [17], 3%. Besides, the Activity in assay [18], in assay [19], in assay [20] and in assay [21] was 100% in each case.
